The supplement of paper PMC8671470

What was measured:
Details in all cases: 72 h
ML-2 [1] = tested on: ML-2
In short: (§1)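 For the IC50, dose–response curves were fitted with a log-logistic model. The data came from fifteen myeloid leukaemia cell lines grown in RPMI 1640 at densities in the linear growth range and incubated in 384-well plates for 72 h at 37 °C under 5% CO2. Doses were five tenfold steps from 1 to 10,000 nM in duplicate, and luminescent ATP viability was normalised to vehicle and to a positive control at 10 µM before four-parameter fitting.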

K-562 [2] = tested on: K-562
In short: as §1

THP-1 = tested on: THP-1
In short: as §1

Mono-Mac-6 [3] = tested on: Mono-Mac-6
In short: as §1

HEL [4] = tested on: HEL
In short: as §1

NOMO-1 = tested on: NOMO-1
In short: as §1

HL-60 [5] = tested on: HL-60
In short: as §1

LAMA-84 [6] = tested on: LAMA-84
In short: as §1

KCL-22 [7] = tested on: KCL-22
In short: as §1

KG-1 [8] = tested on: KG-1
In short: as §1

SHI-1 [9] = tested on: SHI-1
In short: as §1

MOLM-13 = tested on: MOLM-13
In short: as §1

MV4-11 [10] = tested on: MV4-11
In short: as §1

KU-812 = tested on: KU-812
In short: as §1

BV-173 [11] = tested on: BV-173
In short: as §1

HL-60 [12] = assay: cell viability (% survival relative to DMSO control); higher = less cytotoxic
In short: (§2)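 For each screen, HL-60 cells in RPMI 1640 with 10% FBS carried either DMSO or 100 nM of one of three metabolic inhibitors while the full library was applied at five tenfold concentrations, 1–10,000 nM, in duplicate. Plates were 384-well and were kept 72 h at 37 °C, 5% CO2. Viability, measured by CellTiter-Glo, was normalised to wells with DMSO and with 10 μM proteasome inhibitor. Where area under the curve appears, it was fitted by four-parameter log-logistic models in drc and PharmacoGx.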

HL-60 [13] = assay: area under dose-response curve (viability, 1 nM-10 uM) (fraction (0-1)); higher = more sensitive
In short: as §2

ML-2 [14] = assay: cell viability (% survival relative to DMSO control, bortezomib = 0%); higher = less cytotoxic
In short: (§3)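 Percent survival figures are means of duplicate wells. They were obtained by CellTiter-Glo luminescence after 10 AML and 5 CML cell lines spent 72 h at 37 °C with 5% CO2 in 384-well plates with compounds at 1, 10, 100, 1000 or 10000 nM. Vehicle was set to 100% and a 10 µM positive control to 0%.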

K-562 [15] = assay: as above
In short: as §3

Mono-Mac-6 [16] = assay: as above
In short: as §3

HEL [17] = assay: as above
In short: as §3

HL-60 [18] = assay: as above
In short: as §3

LAMA-84 [19] = assay: as above
In short: as §3

KCL-22 [20] = assay: as above
In short: as §3

KG-1 [21] = assay: as above
In short: as §3

SHI-1 [22] = assay: as above
In short: as §3

MV4-11 [23] = assay: as above
In short: as §3

BV-173 [24] = assay: as above
In short: as §3

CN(C)C(=N)NC(=N)N [Metformin]
Details	IC50 (cell viability) [µM]
BV-173 [11]	> 10
HEL [4]	> 10
HL-60 [5]	> 10
K-562 [2]	> 10
KCL-22 [7]	> 10
KG-1 [8]	> 10
KU-812	> 10
LAMA-84 [6]	> 10
ML-2 [1]	> 10
MOLM-13	> 10
MV4-11 [10]	> 10
Mono-Mac-6 [3]	> 10
NOMO-1	> 10
SHI-1 [9]	> 10
THP-1	> 10

cell viability [%], HL-60 [12]
Details	0.001 µM	0.01 µM	0.1 µM	1 µM	10 µM
co-treatment: AZD3965 100 nM	94.9	99	103	94.9	100
co-treatment: DMSO vehicle	101.9	95.8	102.3	95.9	96.73
co-treatment: GSK2194069 100 nM	98.7	98	109	94	106
co-treatment: pictilisib 100 nM	92	111	120	96.7	104

Details	area under dose-response curve, co-treatment: AZD3965 100 nM	area under dose-response curve, co-treatment: DMSO vehicle	area under dose-response curve, co-treatment: GSK2194069 100 nM	area under dose-response curve, co-treatment: pictilisib 100 nM	cell viability, 1 nM [%]	cell viability, 10 nM [%]	cell viability, 100 nM [%]	cell viability, 1000 nM [%]	cell viability, 10000 nM [%]
BV-173 [24]	–	–	–	–	107	90.3	92	100	89.2
HEL [17]	–	–	–	–	110	94.3	107	102	97.3
HL-60 [13]	< 0.0301	< 0.0301	< 0.0301	< 0.0301	–	–	–	–	–
HL-60 [18]	–	–	–	–	98.2	93.8	109	102	84.3
K-562 [15]	–	–	–	–	91.9	102	97.5	103	91.1
KCL-22 [20]	–	–	–	–	98.2	98.9	98.4	103	88.1
KG-1 [21]	–	–	–	–	97.4	97.3	101	100	96.3
LAMA-84 [19]	–	–	–	–	95.6	87.9	97.9	97.7	92.9
ML-2 [14]	–	–	–	–	102	101	99.2	101	88.5
MV4-11 [23]	–	–	–	–	91.2	79.7	81.7	107	84.7
Mono-Mac-6 [16]	–	–	–	–	113	89.7	95.5	97.9	91.8
SHI-1 [22]	–	–	–	–	103	98.3	104	106	93.9

Cl.OC[C@H]1NC[C@H](O)[C@@H](O)[C@H]1O [Migalastat]
Details	IC50 (cell viability) [µM]
BV-173 [11]	> 10
HEL [4]	> 10
HL-60 [5]	> 10
K-562 [2]	> 10
KCL-22 [7]	> 10
KG-1 [8]	> 10
KU-812	> 10
LAMA-84 [6]	> 10
ML-2 [1]	> 10
MOLM-13	> 10
MV4-11 [10]	> 10
Mono-Mac-6 [3]	> 10
NOMO-1	> 10
SHI-1 [9]	> 10
THP-1	> 10

cell viability [%], HL-60 [12]
Details	0.001 µM	0.01 µM	0.1 µM	1 µM	10 µM
co-treatment: AZD3965 100 nM	106	108	102.1	106	102
co-treatment: DMSO vehicle	103	103	96.5	100	95.4
co-treatment: GSK2194069 100 nM	106	110	104	103	94.79
co-treatment: pictilisib 100 nM	102	112	99.4	106	94.1

Details	area under dose-response curve, co-treatment: AZD3965 100 nM	area under dose-response curve, co-treatment: DMSO vehicle	area under dose-response curve, co-treatment: GSK2194069 100 nM	area under dose-response curve, co-treatment: pictilisib 100 nM	cell viability, 1 nM [%]	cell viability, 10 nM [%]	cell viability, 100 nM [%]	cell viability, 1000 nM [%]	cell viability, 10000 nM [%]
BV-173 [24]	–	–	–	–	97.1	102	113	105	87.6
HEL [17]	–	–	–	–	99.2	99.3	101	104	101
HL-60 [13]	< 0.0301	< 0.0301	< 0.0301	< 0.0301	–	–	–	–	–
HL-60 [18]	–	–	–	–	92.9	86.1	113	106	106
K-562 [15]	–	–	–	–	109	94.7	107	101	99.1
KCL-22 [20]	–	–	–	–	95.6	90.2	101	102	100
KG-1 [21]	–	–	–	–	104	98.9	107	99.6	96.3
LAMA-84 [19]	–	–	–	–	106	96.8	103	99	92.7
ML-2 [14]	–	–	–	–	98.5	97.1	111	103	100
MV4-11 [23]	–	–	–	–	117	95.7	100	104	97.2
Mono-Mac-6 [16]	–	–	–	–	102	87.4	104	98.3	103
SHI-1 [22]	–	–	–	–	113	96.2	109	102	107

OCCN1C[C@H](O)[C@@H](O)[C@H](O)[C@H]1CO [Miglitol]
Details	IC50 (cell viability) [µM]
BV-173 [11]	> 10
HEL [4]	> 10
HL-60 [5]	> 10
K-562 [2]	> 10
KCL-22 [7]	> 10
KG-1 [8]	> 10
KU-812	> 10
LAMA-84 [6]	> 10
ML-2 [1]	> 10
MOLM-13	> 10
MV4-11 [10]	> 10
Mono-Mac-6 [3]	> 10
NOMO-1	> 10
SHI-1 [9]	> 10
THP-1	> 10

cell viability [%], HL-60 [12]
Details	0.001 µM	0.01 µM	0.1 µM	1 µM	10 µM
co-treatment: AZD3965 100 nM	100.7	103.6	94.8	102	100.28
co-treatment: DMSO vehicle	96	101	96.3	94.9	99.54
co-treatment: GSK2194069 100 nM	99.52	109	91.7	97.8	109
co-treatment: pictilisib 100 nM	97.8	104	86.9	98.1	106

Details	area under dose-response curve, co-treatment: AZD3965 100 nM	area under dose-response curve, co-treatment: DMSO vehicle	area under dose-response curve, co-treatment: GSK2194069 100 nM	area under dose-response curve, co-treatment: pictilisib 100 nM	cell viability, 1 nM [%]	cell viability, 10 nM [%]	cell viability, 100 nM [%]	cell viability, 1000 nM [%]	cell viability, 10000 nM [%]
BV-173 [24]	–	–	–	–	90.6	110	89.7	94.6	105
HEL [17]	–	–	–	–	107	101	86.5	96.7	101
HL-60 [13]	< 0.0301	< 0.0301	< 0.0301	< 0.0301	–	–	–	–	–
HL-60 [18]	–	–	–	–	86.9	95.7	93.1	105	87.2
K-562 [15]	–	–	–	–	97.8	98.5	83.5	108	102
KCL-22 [20]	–	–	–	–	91.5	108	96.6	95.9	106
KG-1 [21]	–	–	–	–	101	95.7	91.9	94.7	101
LAMA-84 [19]	–	–	–	–	97	97.8	101	98.5	93.6
ML-2 [14]	–	–	–	–	95.4	104	89.3	96	105
MV4-11 [23]	–	–	–	–	102	97	90.4	106	106
Mono-Mac-6 [16]	–	–	–	–	106	102	98.1	91.3	99.1
SHI-1 [22]	–	–	–	–	102	109	105	92.8	103
